ChEMBL document CHEMBL1201862, “PubChem BioAssay data set” (2004)
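Briefly, cells in 96-well plates were exposed to five compound concentrations for 48 h, and endpoints were estimated by linear interpolation. At the GI50, growth is halved.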 Activity calls are given as the source filed them. Cut-off read from the data, not from the text of the source: active = GI50 up to about 1.1 µM and inactive = higher.

What was measured:
Test in all cases: NCI-60 cell line screen, 48 h
786-0 = test system: 786-0
A498 = test system: A498
A549 = test system: A549
ACHN = test system: ACHN
BT-549 = test system: BT-549
CAKI-1 = test system: CAKI-1
CCRF-CEM = test system: CCRF-CEM
COLO 205 = test system: COLO 205
DU-145 = test system: DU-145
EKVX = test system: EKVX
HCC 2998 = test system: HCC 2998
HCT-116 = test system: HCT-116
HCT-15 = test system: HCT-15
HL-60 = test system: HL-60
HOP-62 = test system: HOP-62
HOP-92 = test system: HOP-92
HT-29 = test system: HT-29
Hs-578T = test system: Hs-578T
IGROV-1 = test system: IGROV-1
K562 = test system: K562
KM12 = test system: KM12
LOX IMVI = test system: LOX IMVI
M14 = test system: M14
MCF7 = test system: MCF7
MDA-MB-231 = test system: MDA-MB-231
MDA-MB-435 = test system: MDA-MB-435
MDA-N = test system: MDA-N
MOLT-4 = test system: MOLT-4
NCI-H226 = test system: NCI-H226
NCI-H23 = test system: NCI-H23
NCI-H460 = test system: NCI-H460
NCI-H522 = test system: NCI-H522
NCI/ADR-RES = test system: NCI/ADR-RES
OVCAR-3 = test system: OVCAR-3
OVCAR-4 = test system: OVCAR-4
OVCAR-5 = test system: OVCAR-5
OVCAR-8 = test system: OVCAR-8
PC-3 = test system: PC-3
RPMI-8226 = test system: RPMI-8226
RXF 393 = test system: RXF 393
SF-268 = test system: SF-268
SF-295 = test system: SF-295
SF-539 = test system: SF-539
SK-MEL-28 = test system: SK-MEL-28
SK-MEL-2 = test system: SK-MEL-2
SK-MEL-5 = test system: SK-MEL-5
SK-OV-3 = test system: SK-OV-3
SN12C = test system: SN12C
SNB-19 = test system: SNB-19
SNB-75 = test system: SNB-75
SR = test system: SR
SW-620 = test system: SW-620
T47D = test system: T47D
TK-10 = test system: TK-10
U-251 = test system: U-251
UACC-257 = test system: UACC-257
UACC-62 = test system: UACC-62
UO-31 = test system: UO-31
Malme-3M = test system: Malme-3M

For C=CCC(CNC(=O)OCc1ccccc1)O[Si](C)(C)C(C)(C)C (stereo not given), the GI50 (786-0) was 29.4 µM (inactive), the GI50 (A498) was 38.8 µM (inactive) and the GI50 (A549) was 30.1 µM (inactive). The GI50 (ACHN) was 33.6 µM (inactive), the GI50 (BT-549) was 55 µM (inactive) and the GI50 (CAKI-1) was 29.4 µM (inactive). For the same compound, the GI50 (CCRF-CEM) was 28.3 µM (inactive), the GI50 (COLO 205) was 16.6 µM (inactive) and the GI50 (DU-145) was 36.5 µM (inactive). For the same compound, the GI50 (EKVX) was 25.4 µM (inactive), the GI50 (HCC 2998) was 39.5 µM (inactive) and the GI50 (HCT-116) was 20.8 µM (inactive). The GI50 (HCT-15) was 35.9 µM, the GI50 (HL-60) was 20.1 µM (inactive) and the GI50 (HOP-62) was 38.5 µM (inactive). For the same compound, the GI50 (HOP-92) was 26.2 µM (inactive), the GI50 (HT-29) was 18 µM (inactive) and the GI50 (Hs-578T) was 45.2 µM (inactive). For the same compound, the GI50 (IGROV-1) was 27.4 µM (inactive), the GI50 (K562) was 23.6 µM (inactive) and the GI50 (KM12) was 34 µM (inactive). For the same compound, the GI50 (LOX IMVI) was 23.4 µM (inactive), the GI50 (M14) was 26.4 µM (inactive) and the GI50 (MCF7) was 22.3 µM (inactive). The GI50 (MDA-MB-231) was 17.3 µM (inactive), the GI50 (MDA-MB-435) was 38.5 µM (inactive) and the GI50 (MDA-N) was 34.8 µM (inactive). For the same compound, the GI50 (MOLT-4) was 19.6 µM (inactive), the GI50 (NCI-H226) was 25.9 µM (inactive) and the GI50 (NCI-H23) was 55.5 µM (inactive). For the same compound, the GI50 (NCI-H460) was 25.6 µM (inactive), the GI50 (NCI-H522) was 24.9 µM (inactive) and the GI50 (NCI/ADR-RES) was 36.9 µM (inactive). The GI50 (OVCAR-3) was 31.6 µM (inactive), the GI50 (OVCAR-4) was 46.7 µM (inactive) and the GI50 (OVCAR-5) was 26.3 µM (inactive). The GI50 (OVCAR-8) was 45.3 µM (inactive), the GI50 (PC-3) was 30.3 µM (inactive) and the GI50 (RPMI-8226) was 20 µM (inactive). The GI50 (RXF 393) was 17.3 µM (inactive), the GI50 (SF-268) was 45.3 µM (inactive) and the GI50 (SF-295) was 35.2 µM (inactive). The GI50 (SF-539) was 28.5 µM (inactive), the GI50 (SK-MEL-28) was 48 µM (inactive) and the GI50 (SK-MEL-2) was 16.6 µM (inactive). The GI50 (SK-MEL-5) was 16.6 µM (inactive), the GI50 (SK-OV-3) was 61.5 µM (inactive) and the GI50 (SN12C) was 31.2 µM (inactive). For the same compound, the GI50 (SNB-19) was 40.3 µM (inactive), the GI50 (SNB-75) was 59.3 µM (inactive) and the GI50 (SR) was 18.5 µM (inactive). For the same compound, the GI50 (SW-620) was 38.1 µM (inactive), the GI50 (T47D) was 22.9 µM (inactive) and the GI50 (TK-10) was 74.5 µM (inactive). The GI50 (U-251) was 25.6 µM (inactive), the GI50 (UACC-257) was 25.4 µM (inactive) and the GI50 (UACC-62) was 23.2 µM (inactive). For the same compound, the GI50 (UO-31) was 22.2 µM (inactive).

In the case of CC1=NN(c2cc(Cl)c(S(=O)(=O)O)cc2Cl)C2(C1)C(Cl)C(=O)N2c1nc2ccccc2s1 (stereo not given), the GI50 (786-0) is reported as > 100 µM (inactive), the GI50 (A498) is reported as 80 µM (inactive) and the GI50 (A549) is reported as > 100 µM (inactive). For the same compound, the GI50 (ACHN) was > 100 µM (inactive), the GI50 (BT-549) was > 100 µM (inactive) and the GI50 (CAKI-1) was > 100 µM (inactive). For the same compound, the GI50 (CCRF-CEM) was 30.3 µM (inactive), the GI50 (COLO 205) was > 100 µM (inactive) and the GI50 (DU-145) was 29.3 µM (inactive). For the same compound, the GI50 (EKVX) was 44.9 µM (inactive), the GI50 (HCC 2998) was > 100 µM (inactive) and the GI50 (HCT-116) was > 100 µM (inactive). For the same compound, the GI50 (HCT-15) was over 100 µM, the GI50 (HL-60) was > 100 µM (inactive) and the GI50 (HOP-92) was > 100 µM (inactive). For the same compound, the GI50 (HT-29) was > 100 µM (inactive), the GI50 (Hs-578T) was > 100 µM (inactive) and the GI50 (IGROV-1) was 35 µM (inactive). The GI50 (K562) was > 100 µM (inactive), the GI50 (KM12) was 97.9 µM (inactive) and the GI50 (LOX IMVI) was 29.4 µM (inactive). For the same compound, the GI50 (M14) was > 100 µM (inactive), the GI50 (MCF7) was 46.2 µM (inactive) and the GI50 (MDA-MB-231) was 42.6 µM (inactive). The GI50 (MDA-MB-435) was 84.3 µM (inactive), the GI50 (MDA-N) was > 100 µM (inactive) and the GI50 (MOLT-4) was 45.6 µM (inactive). For the same compound, the GI50 (Malme-3M) was > 100 µM (inactive), the GI50 (NCI-H226) was 53.5 µM (inactive) and the GI50 (NCI-H23) was 91 µM (inactive). For the same compound, the GI50 (NCI-H460) was > 100 µM (inactive), the GI50 (NCI-H522) was 19.6 µM (inactive) and the GI50 (NCI/ADR-RES) was > 100 µM (inactive). The GI50 (OVCAR-4) was > 100 µM (inactive), the GI50 (OVCAR-5) was > 100 µM (inactive) and the GI50 (OVCAR-8) was 86.9 µM (inactive). For the same compound, the GI50 (PC-3) was 27.8 µM (inactive), the GI50 (RPMI-8226) was 79.3 µM (inactive) and the GI50 (RXF 393) was > 100 µM (inactive). For the same compound, the GI50 (SF-268) was > 100 µM (inactive), the GI50 (SF-539) was > 100 µM (inactive) and the GI50 (SK-MEL-28) was > 100 µM (inactive). The GI50 (SK-MEL-2) was > 100 µM (inactive), the GI50 (SK-MEL-5) was > 100 µM (inactive) and the GI50 (SN12C) was > 100 µM (inactive). The GI50 (SNB-19) was > 100 µM (inactive), the GI50 (SNB-75) was > 100 µM (inactive) and the GI50 (SR) was 89.9 µM (inactive). For the same compound, the GI50 (SW-620) was > 100 µM (inactive), the GI50 (T47D) was 66.1 µM (inactive) and the GI50 (TK-10) was 68.5 µM (inactive). For the same compound, the GI50 (U-251) was > 100 µM (inactive), the GI50 (UACC-257) was > 100 µM (inactive) and the GI50 (UACC-62) was 71 µM (inactive). For the same compound, the GI50 (UO-31) was 22.2 µM (inactive).

In the case of CCOC(=O)/C=C/[C@H](O)[C@@H](O)/C=C/C(=O)OCC, the GI50 (786-0) is reported as 33.8 µM (inactive), the GI50 (A498) is reported as 42.7 µM (inactive) and the GI50 (A549) is reported as 40.7 µM (inactive). The GI50 (ACHN) was 23.8 µM (inactive), the GI50 (BT-549) was 35.3 µM (inactive) and the GI50 (CAKI-1) was 23.1 µM (inactive). For the same compound, the GI50 (CCRF-CEM) was 8.34 µM (inactive), the GI50 (COLO 205) was 32.4 µM (inactive) and the GI50 (DU-145) was 37.4 µM (inactive). The GI50 (EKVX) was 24.7 µM (inactive), the GI50 (HCC 2998) was 36.1 µM (inactive) and the GI50 (HCT-116) was 18.2 µM (inactive). The GI50 (HCT-15) was 23 µM, the GI50 (HOP-62) was 21.3 µM (inactive) and the GI50 (HOP-92) was 16.8 µM (inactive). For the same compound, the GI50 (HT-29) was 15.4 µM (inactive), the GI50 (Hs-578T) was 34.8 µM (inactive) and the GI50 (IGROV-1) was 30.7 µM (inactive). The GI50 (K562) was 10.6 µM (inactive), the GI50 (KM12) was 18.9 µM (inactive) and the GI50 (LOX IMVI) was 23.9 µM (inactive). For the same compound, the GI50 (MCF7) was 19.6 µM (inactive), the GI50 (MDA-MB-231) was 41.3 µM (inactive) and the GI50 (MDA-MB-435) was 29.9 µM (inactive). The GI50 (MDA-N) was 29.6 µM (inactive), the GI50 (MOLT-4) was 14.9 µM (inactive) and the GI50 (Malme-3M) was 21.6 µM (inactive). The GI50 (NCI-H226) was > 100 µM (inactive), the GI50 (NCI-H23) was 33.8 µM (inactive) and the GI50 (NCI-H460) was 19.1 µM (inactive). For the same compound, the GI50 (NCI-H522) was 20.7 µM (inactive), the GI50 (NCI/ADR-RES) was 29.9 µM (inactive) and the GI50 (OVCAR-3) was 20.1 µM (inactive). For the same compound, the GI50 (OVCAR-4) was 31.8 µM (inactive), the GI50 (OVCAR-5) was 51.2 µM (inactive) and the GI50 (OVCAR-8) was 19.6 µM (inactive). For the same compound, the GI50 (PC-3) was 23.3 µM (inactive), the GI50 (RPMI-8226) was 21.2 µM (inactive) and the GI50 (RXF 393) was 20.2 µM (inactive). The GI50 (SF-268) was 34.2 µM (inactive), the GI50 (SF-295) was 31.7 µM (inactive) and the GI50 (SF-539) was 33.5 µM (inactive). The GI50 (SK-MEL-28) was 18.2 µM (inactive), the GI50 (SK-MEL-2) was 30.8 µM (inactive) and the GI50 (SK-MEL-5) was 22.6 µM (inactive). For the same compound, the GI50 (SK-OV-3) was 62.2 µM (inactive), the GI50 (SN12C) was 26.6 µM (inactive) and the GI50 (SNB-19) was 22 µM (inactive). The GI50 (SNB-75) was 62.7 µM (inactive), the GI50 (SR) was 8.04 µM (inactive) and the GI50 (SW-620) was 17 µM (inactive). For the same compound, the GI50 (T47D) was 34.1 µM (inactive), the GI50 (TK-10) was 55.8 µM (inactive) and the GI50 (U-251) was 31 µM (inactive). For the same compound, the GI50 (UACC-257) was 45.8 µM (inactive), the GI50 (UACC-62) was 21.3 µM (inactive) and the GI50 (UO-31) was 61.8 µM (inactive).
